Data set [1] concerns Human cytomegalovirus (HCMV). The experiment in a line: Anti-HCMV plaque reduction assay in monolayers of MRCS cells (human embryonic lung). The data set is classed as cell-based. The note with it: Human betaherpesvirus 5, 50% inhibitory concentration estimated from dose-response curve. On the procedure:
Human cytomegalovirus (HCMV) is assayed in monolayers of MRCS cells (human embryonic lung) in multiwell trays. Activity of compounds is determined in the plaque reduction assay, in which a cell monolayer is infected with a suspension of HCMV. A range of concentrations of the compound to be tested (of known moiarity) is then incorporated into the carboxymethyl cellulose overlay. Plaque numbers of each concentration are expressed as percentage of the control and a dose-response curve is drawn. From this curve the 50% inhibitory concentration (IC50) is estimated.

In data set [2] the test system is human bon marrow progenitor cells (CFU-GM). The experiment in a line: Toxicity in human bone marrow progenitor cells in vitro, CFU-GM. The data set is classed as cell-based. On the procedure: (§1) Compounds of formula (I) were tested fortoxicity in human bon marrow progenitor cells, in vitro, by the method of Dornsife, R. E. et at., 1991, Antimicrob. Agents Chemother., 35: 322-328. Three separate assays were performed using marrow from three different donors.

Data set [3] has as its system human bon marrow progenitor cells (BFU-E). The experiment in a line: Toxicity in human bone marrow progenitor cells in vitro, BFU-E. The data set is classed as cell-based. The note with it: 50% inhibition of bone marrow progenitor cells; three assays, marrow from three donors. On the procedure:
as §1

In data set [4] the test system is hepatitis B viral replication. The note with it: Proc. Natl. Acad. Sci. USA 1989, 86, 8541-8544; cited from earlier work.
For data set [5], the system named is herpes simplex virus type 1 (HSV-1). To be noted: J. Med. Chem. 1987, 30, 746-749; Biochem. Pharmacol. 1990, 40, 1515-1522; especially the (+)-enantiomer; cited from earlier work.
The mark [6] stands for this setting: 50% inhibition of bone marrow progenitor cells, three assays, marrow from three donors.

Read-outs that look alike come from different tables or passages of the source. A value given as a limit tells only on which side of the number the result lay.

Take `Nc1nc(NCC2CC2)c2ncn([C@@H]3C[C@H](CO)[C@@H](O)C3)c2n1` (racemic) [Ex. 22, (±) (1S, 2R, 4R)-4-[2-Amino-6-(cyclopropylmethylamino)-9H-purin-9-yl]-2-(hydroxymethyl)-1-cyclopentanol]: the IC50 in data set [1] was 3100 nM. Besides, in data set [2] (setting [6]), the “Cell Toxicity I50 CFU-GM” value turned out to be 34 ± 14 µM. Moreover, the “Cell Toxicity I50 BFU-E” value in data set [3] is on record as >>50 μM.
`Nc1nc(OC2CCCC2)c2ncn([C@@H]3C[C@H](CO)[C@@H](O)C3)c2n1` (racemic) [Example 28, (±)-(1S, 2R, 4R)-4-(2-Amino-6-(cyclopentyloxy)-9H-purin-9-yl)-2-(hydroxymethyl)-1-cyclopentanol]: the melting point lay in the range of 181 to 182 °C.
For `Nc1nc2c(ncn2[C@@H]2C[C@H](CO)[C@@H](O)C2)c(=O)[nH]1` (relative stereo) [2′-CDG, (1R*, 3S*, 4R)-2-amino-1,9-dihydro-9-[3-hydroxy-4-hydroxymethyl)cyclopentyl]-6H-purine-6-one, reference compound], in data set [2], the “Cell Toxicity I50 CFU-GM” value is 0.4 ± 0.3 µM. For the same molecule, in data set [4], the “inhibition of hepatitis B viral replication” value is given as “inhibits hepatitis B viral replication”. For the same molecule, the “Cell Toxicity I50 BFU-E” value in data set [3] was found to be 4 ± 2 µM. Also, the “activity against HSV-1” value in data set [5] was “active against herpes simplex virus type 1”.
Consider `Cl.Cl.Nc1nc(NC2CC2)c2ncn([C@H]3C[C@@H](CO)[C@H](O)C3)c2n1` (stereo in doubt), for which the melting point was above 250 °C.
The molecule `Nc1nc(NC2CC2)c2ncn([C@@H]3C[C@H](CO)[C@@H](O)C3)c2n1` (stereo in doubt) [Ex. 23, (±)-(1S, 2R, 4R)-4-[2-Amino-6-(cyclopropylamino)-9H-purin-9-yl]-2-(hydroxymethyl)-1-cyclopentanol] came in with a melting point of 174 to 176 °C. Moreover, the concentration for half-maximal inhibition (IC50) in data set [1] was 2800 nM. Also, the “Cell Toxicity I50 CFU-GM” value in data set [2] (setting [6]) was 14 ± 1 µM. The “Cell Toxicity I50 BFU-E” value in data set [3] came to 55 ± 15 µM.

As usually defined, the IC50 is the concentration that inhibits the measured activity by half. In general, melting point refers to the temperature of the solid-liquid transition.

(Values after patent US6392085B1, “Therapeutic nucleosides” (SmithKline Beecham Corporation, priority 1992, dated 2002).)
